Experiments:
[1] = system: pigweed; assay: Test A preemergence; format: in vivo, Amaranthus retroflexus; settings: Amaranthus retroflexus, pre-emergence, 240 h, 0 to 100 scale (0 no effect, 100 complete control), read-out: Plant response rating, Pigweed; for pest or weed control at 125 g/ha: 125 g ai/ha; for pest or weed control at 500 g/ha: 500 g ai/ha, approx. 10 d
In short: (§1)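 Herbicidal response was scored on plants treated pre- or postemergence with surfactant-containing, non-phytotoxic solvent formulations. Preemergence meant a directed spray onto soil (loam–sand) holding sown seed; postemergence plants were at one to two leaves.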

[2] = system: wheat; assay: Test A preemergence; format: in vivo, Triticum aestivum; settings: Triticum aestivum, pre-emergence, 240 h, 0 to 100 scale (0 no effect, 100 complete control), read-out: Plant response rating, Wheat; for plant injury at 125 g/ha: 125 g ai/ha; for plant injury at 500 g/ha: 500 g ai/ha, approx. 10 d
In short: as §1

[3] = system: corn; assay: Test A postemergence; format: in vivo, Zea mays; settings: Zea mays, post-emergence, 240 h, 0 to 100 scale (0 no effect, 100 complete control), approx. 10 d; for Corn plant response rating (crop injury, 0 = no effect, 100 = complete kill) at 125 g/ha: 125 g ai/ha; for Corn plant response rating (crop injury, 0 = no effect, 100 = complete kill) at 500 g/ha: 500 g ai/ha
In short: as §1

[4] = system: rice; assay: Test B flooded paddy test; format: in vivo, Oryza sativa; settings: Oryza sativa, 360 h, 125 g ai/ha, applied to paddy water at 2-leaf stage, visual rating after 13 to 15 d, scale 0 (no effect) to 100 (complete control), read-out: Plant response rating, Rice, Flood
In short: (§2)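 Pots were flooded to 3 cm above the soil at treatment, and compounds were applied directly into the paddy water. That depth was held throughout. After 13 to 15 d in a greenhouse, plants were rated visually against untreated controls.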

[5] = system: ducksalad; assay: Test B flooded paddy test; format: in vivo, Heteranthera limosa; settings: Heteranthera limosa, 360 h, 125 g ai/ha, applied to paddy water at 2-leaf stage, visual rating after 13 to 15 d, scale 0 (no effect) to 100 (complete control), read-out: Plant response rating, Ducksalad, Flood
In short: as §2

[6] = system: barnyardgrass; assay: Test B flooded paddy test; format: in vivo, Echinochloa crus-galli; settings: Echinochloa crus-galli, 360 h, 125 g ai/ha, applied to paddy water at 2-leaf stage, visual rating after 13 to 15 d, scale 0 (no effect) to 100 (complete control), read-out: Plant response rating, Barnyardgrass, Flood
In short: as §2

[7] = system: wheat (winter wheat); assay: Test C postemergence; format: in vivo, Triticum aestivum
In short: (§3)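 Seeds were planted in loam soil plus sand and sprayed preemergence. In parallel, potted plants in a peat-based medium were sprayed postemergence at 2 to 18 cm (1- to 4-leaf stage). Compounds were formulated in non-phytotoxic solvent with surfactant.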

[8] = system: foxtail, giant; assay: Test C postemergence; format: in vivo, Setaria faberii
In short: as §3

[9] = system: lambsquarters; assay: Test C postemergence; format: in vivo, Chenopodium album
In short: as §3

[10] = system: pigweed; assay: Test C postemergence; format: in vivo, Amaranthus retroflexus
In short: as §3

[11] = system: ragweed; assay: Test C postemergence; format: in vivo, Ambrosia elatior
In short: as §3

[12] = system: soybean; assay: Test C postemergence; format: in vivo, Glycine max
In short: as §3

[13] = system: chickweed; assay: Test C postemergence; format: in vivo, Stellaria media
In short: as §3

[14] = system: oat, wild; assay: Test C postemergence; format: in vivo, Avena fatua
In short: as §3

CCOc1nc(-c2ccc(F)cc2)nn1Cc1ccnc(C(F)(F)F)c1 [Compound 8, 4-[[5-ethoxy-3-(4-fluorophenyl)-1H-1,2,4-triazol-1-yl]methyl]-2-(trifluoromethyl)pyridine]
pest or weed control at 125 g/ha [1]: 100% | pest or weed control at 500 g/ha [1]: 100% | plant injury at 125 g/ha [2]: 80% | plant injury at 500 g/ha [2]: 100% | Corn plant response rating (crop injury, 0 = no effect, 100 = complete kill) at 125 g/ha [3]: 50% | Corn plant response rating (crop injury, 0 = no effect, 100 = complete kill) at 500 g/ha [3]: 90% | plant injury at 125 g/ha [4]: 50% | pest or weed control at 125 g/ha [5]: 85% | pest or weed control at 125 g/ha [6]: 50% | Plant response rating (scale of 0 to 100 where 0 is no effect and 100 is complete control) ([7]; 31 g ai/ha): 30 | Plant response rating (scale of 0 to 100 where 0 is no effect and 100 is complete control) ([7]; 62 g ai/ha): 35 | Plant response rating (scale of 0 to 100 where 0 is no effect and 100 is complete control) ([7]; 125 g ai/ha): 30 | Plant response rating (scale of 0 to 100 where 0 is no effect and 100 is complete control) ([7]; 250 g ai/ha): 40 | Plant response rating (scale of 0 to 100 where 0 is no effect and 100 is complete control) ([8]; 31 g ai/ha): 20 | Plant response rating (scale of 0 to 100 where 0 is no effect and 100 is complete control) ([8]; 62 g ai/ha): 40 | Plant response rating (scale of 0 to 100 where 0 is no effect and 100 is complete control) ([8]; 125 g ai/ha): 55 | Plant response rating (scale of 0 to 100 where 0 is no effect and 100 is complete control) ([8]; 250 g ai/ha): 85 | Plant response rating (scale of 0 to 100 where 0 is no effect and 100 is complete control) ([9]; 31 g ai/ha): 95 | Plant response rating (scale of 0 to 100 where 0 is no effect and 100 is complete control) ([9]; 62 g ai/ha): 98 | Plant response rating (scale of 0 to 100 where 0 is no effect and 100 is complete control) ([9]; 125 g ai/ha): 95 | Plant response rating (scale of 0 to 100 where 0 is no effect and 100 is complete control) ([9]; 250 g ai/ha): 98 | Plant response rating (scale of 0 to 100 where 0 is no effect and 100 is complete control) ([10]; 31 g ai/ha): 95 | Plant response rating (scale of 0 to 100 where 0 is no effect and 100 is complete control) ([10]; 62 g ai/ha): 95 | Plant response rating (scale of 0 to 100 where 0 is no effect and 100 is complete control) ([10]; 125 g ai/ha): 98 | Plant response rating (scale of 0 to 100 where 0 is no effect and 100 is complete control) ([10]; 250 g ai/ha): 98 | Plant response rating (scale of 0 to 100 where 0 is no effect and 100 is complete control) ([11]; 31 g ai/ha): 45 | Plant response rating (scale of 0 to 100 where 0 is no effect and 100 is complete control) ([11]; 62 g ai/ha): 50 | Plant response rating (scale of 0 to 100 where 0 is no effect and 100 is complete control) ([11]; 125 g ai/ha): 70 | Plant response rating (scale of 0 to 100 where 0 is no effect and 100 is complete control) ([11]; 250 g ai/ha): 80 | Plant response rating (scale of 0 to 100 where 0 is no effect and 100 is complete control) ([12]; 31 g ai/ha): 65 | Plant response rating (scale of 0 to 100 where 0 is no effect and 100 is complete control) ([12]; 62 g ai/ha): 75 | Plant response rating (scale of 0 to 100 where 0 is no effect and 100 is complete control) ([12]; 125 g ai/ha): 95 | Plant response rating (scale of 0 to 100 where 0 is no effect and 100 is complete control) ([12]; 250 g ai/ha): 85 | Plant response rating (scale of 0 to 100 where 0 is no effect and 100 is complete control) ([13]; 31 g ai/ha): 85 | Plant response rating (scale of 0 to 100 where 0 is no effect and 100 is complete control) ([13]; 62 g ai/ha): 98 | Plant response rating (scale of 0 to 100 where 0 is no effect and 100 is complete control) ([13]; 125 g ai/ha): 98 | Plant response rating (scale of 0 to 100 where 0 is no effect and 100 is complete control) ([13]; 250 g ai/ha): 98 | Plant response rating (scale of 0 to 100 where 0 is no effect and 100 is complete control) ([14]; 31 g ai/ha): 45 | Plant response rating (scale of 0 to 100 where 0 is no effect and 100 is complete control) ([14]; 62 g ai/ha): 50 | Plant response rating (scale of 0 to 100 where 0 is no effect and 100 is complete control) ([14]; 125 g ai/ha): 35 | Plant response rating (scale of 0 to 100 where 0 is no effect and 100 is complete control) ([14]; 250 g ai/ha): 45

COc1nc(-c2ccc(F)cc2)nn1Cc1ccnc(C(F)(F)F)c1 [Compound 9, 4-[[3-(4-fluorophenyl)-5-methoxy-1H-1,2,4-triazol-1-yl]methyl]-2-(trifluoromethyl)pyridine]
pest or weed control at 125 g/ha [1]: 100% | pest or weed control at 500 g/ha [1]: 100% | plant injury at 125 g/ha [2]: 0% | plant injury at 500 g/ha [2]: 50% | Corn plant response rating (crop injury, 0 = no effect, 100 = complete kill) at 125 g/ha [3]: 40% | Corn plant response rating (crop injury, 0 = no effect, 100 = complete kill) at 500 g/ha [3]: 80% | plant injury at 125 g/ha [4]: 0% | pest or weed control at 125 g/ha [5]: 20% | pest or weed control at 125 g/ha [6]: 0% | Plant response rating (scale of 0 to 100 where 0 is no effect and 100 is complete control) ([7]; 16 g ai/ha): 0 | Plant response rating (scale of 0 to 100 where 0 is no effect and 100 is complete control) ([7]; 31 g ai/ha): 0 | Plant response rating (scale of 0 to 100 where 0 is no effect and 100 is complete control) ([7]; 62 g ai/ha): 0 | Plant response rating (scale of 0 to 100 where 0 is no effect and 100 is complete control) ([7]; 125 g ai/ha): 5 | Plant response rating (scale of 0 to 100 where 0 is no effect and 100 is complete control) ([8]; 16 g ai/ha): 10 | Plant response rating (scale of 0 to 100 where 0 is no effect and 100 is complete control) ([8]; 31 g ai/ha): 15 | Plant response rating (scale of 0 to 100 where 0 is no effect and 100 is complete control) ([8]; 62 g ai/ha): 15 | Plant response rating (scale of 0 to 100 where 0 is no effect and 100 is complete control) ([8]; 125 g ai/ha): 20 | Plant response rating (scale of 0 to 100 where 0 is no effect and 100 is complete control) ([9]; 16 g ai/ha): 65 | Plant response rating (scale of 0 to 100 where 0 is no effect and 100 is complete control) ([9]; 31 g ai/ha): 55 | Plant response rating (scale of 0 to 100 where 0 is no effect and 100 is complete control) ([9]; 62 g ai/ha): 70 | Plant response rating (scale of 0 to 100 where 0 is no effect and 100 is complete control) ([9]; 125 g ai/ha): 85 | Plant response rating (scale of 0 to 100 where 0 is no effect and 100 is complete control) ([10]; 16 g ai/ha): 75 | Plant response rating (scale of 0 to 100 where 0 is no effect and 100 is complete control) ([10]; 31 g ai/ha): 85 | Plant response rating (scale of 0 to 100 where 0 is no effect and 100 is complete control) ([10]; 62 g ai/ha): 90 | Plant response rating (scale of 0 to 100 where 0 is no effect and 100 is complete control) ([10]; 125 g ai/ha): 85 | Plant response rating (scale of 0 to 100 where 0 is no effect and 100 is complete control) ([11]; 16 g ai/ha): 15 | Plant response rating (scale of 0 to 100 where 0 is no effect and 100 is complete control) ([11]; 31 g ai/ha): 25 | Plant response rating (scale of 0 to 100 where 0 is no effect and 100 is complete control) ([11]; 62 g ai/ha): 25 | Plant response rating (scale of 0 to 100 where 0 is no effect and 100 is complete control) ([11]; 125 g ai/ha): 50 | Plant response rating (scale of 0 to 100 where 0 is no effect and 100 is complete control) ([12]; 16 g ai/ha): 15 | Plant response rating (scale of 0 to 100 where 0 is no effect and 100 is complete control) ([12]; 31 g ai/ha): 25 | Plant response rating (scale of 0 to 100 where 0 is no effect and 100 is complete control) ([12]; 62 g ai/ha): 30 | Plant response rating (scale of 0 to 100 where 0 is no effect and 100 is complete control) ([12]; 125 g ai/ha): 30 | Plant response rating (scale of 0 to 100 where 0 is no effect and 100 is complete control) ([13]; 16 g ai/ha): 70 | Plant response rating (scale of 0 to 100 where 0 is no effect and 100 is complete control) ([13]; 31 g ai/ha): 75 | Plant response rating (scale of 0 to 100 where 0 is no effect and 100 is complete control) ([13]; 62 g ai/ha): 75 | Plant response rating (scale of 0 to 100 where 0 is no effect and 100 is complete control) ([13]; 125 g ai/ha): 80 | Plant response rating (scale of 0 to 100 where 0 is no effect and 100 is complete control) ([14]; 16 g ai/ha): 5 | Plant response rating (scale of 0 to 100 where 0 is no effect and 100 is complete control) ([14]; 31 g ai/ha): 5 | Plant response rating (scale of 0 to 100 where 0 is no effect and 100 is complete control) ([14]; 62 g ai/ha): 5 | Plant response rating (scale of 0 to 100 where 0 is no effect and 100 is complete control) ([14]; 125 g ai/ha): 10
